# Reference: patent US6727076B2 (priority 1995, dated 2004)
# Peptide text beside a SMILES is read from it.
# Tested on: E. coli 287 (ATCC #11775)
# Assay type: cell-based
row,Structure (SMILES),carbon source utilization result
1,CC(=O)O [Acetic acid],positive
2,C[C@H](N)C(N)=O [alaninamide],positive
3,CCCC(=O)C(=O)O [α-ketovaleric acid],negative
4,O=C(O)CCCO [γ-hydroxybutyric acid],negative
5,O=C(O)[C@H](O)[C@@H](O)[C@H](O)[C@H](O)CO [D-gluconic acid],positive
6,OC[C@@H](O)[C@@H](O)[C@@H](O)CO [Adonitol],negative
7,NCC(=O)N[C@@H](CC(=O)O)C(=O)O [Glycyl-L-aspartic acid] (H-Gly-Asp-OH),positive
8,OC[C@@H](O)[C@H](O)[C@@H](O)CO [xylitol],negative
9,C[C@H](O)[C@H](O)[C@@H](O)[C@@H](O)C=O [L-rhamnose],positive
10,O=C(O)/C=C(/CC(=O)O)C(=O)O [cis-aconitic acid],positive/negative
11,"CC(O)C(=O)O (racemic) [D,L-lactic acid]",positive
12,C=C(CC(=O)O)C(=O)O [itaconic acid],negative
13,"CC(O)C(C)O (stereo not drawn) [2,3-butanediol]",positive/negative

# Tested on: E. coli MG1655
# Assay type: cell-based
row,Structure (SMILES),"suitability as nitrogen source (growth, purple color)"
1,CCCCCN [n-amylamine],not suitable
2,CC(C)[C@H](N)C(=O)O [L-valine],not suitable
3,N[C@H](CCC(=O)O)C(=O)O [D-glutamic acid],not suitable
4,CC(N)=O [acetamide],not suitable
5,O=C1NC(=O)C(=O)C(=O)N1 [alloxan],not suitable
6,C[C@H](N)C(=O)N[C@@H](Cc1cnc[nH]1)C(=O)O [ala-his] (H-Ala-His-OH),not suitable
7,C[C@@H](N)c1ccccc1 [(R)-(+)-α-phenylethylamine],not suitable
8,C[C@H](N)C(=O)N[C@H](C(=O)O)[C@@H](C)O [ala-thr] (H-Ala-Thr-OH),positive
9,CC(=O)NCC(=O)O [N-acetyl-glycine],not suitable
10,O=c1[nH]c(=O)c2[nH]cnc2[nH]1 [xanthine],not suitable
11,NC(=O)NCCC[C@H](N)C(=O)O [L-citrulline],not suitable
12,O=C(O)CNC(=O)c1ccccc1 [hippuric acid],not suitable
13,NCCCCCC(=O)O [ε-amino-n-caproic acid],not suitable
14,Nc1ncnc2nc[nH]c12 [adenine],not suitable
15,N=C(N)NCCCCN [agmatine],not suitable
16,Cc1c[nH]c(=O)[nH]c1=O [thymine],not suitable
17,CC(C)[C@@H](N)C(=O)O [D-valine],not suitable
18,NC(=O)[C@@H](O)[C@@H](O)[C@H](O)[C@@H](O)C=O [Glucuronamide],not suitable
19,CCC(N)C(=O)O (racemic) [DL-α-amino-n-butyric acid],not suitable
20,C[C@H](NC(=O)CN)C(=O)O [gly-ala] (H-Gly-Ala-OH),positive
21,CCCCN [n-butylamine],not suitable
22,O=NO [sodium nitrite],not suitable
23,CCCC(N)C(=O)O (stereo not drawn) [2-amino-valeric acid],not suitable
24,O=c1[nH]c(=O)c2ncn([C@@H]3O[C@H](CO)[C@@H](O)[C@H]3O)c2[nH]1 [xanthosine],not suitable
25,CC(O)C(N)=O (stereo not drawn) [lactamide],not suitable
26,NCCCC[C@H](N)C(=O)O [L-lysine],not suitable
27,"Cl.N [NH4Cl, ammonium chloride]",positive

row,Structure (SMILES),"suitability as nitrogen source (growth, purple color)"
1,N[C@@H](Cc1ccc(O)cc1)C(=O)O [L-tyrosine],not suitable
2,C[C@H](N)C(=O)N[C@@H](CCC(N)=O)C(=O)O [ala-gln] (H-Ala-Gln-OH),positive
3,NCCc1ccc(O)cc1 [Tyramine],not suitable
4,NCC(=O)N[C@@H](CCC(N)=O)C(=O)O [gly-gln] (H-Gly-Gln-OH),positive
5,NC(=O)C[C@@H](N)C(=O)O [D-asparagine],not suitable
6,Nc1ncnc2c1ncn2[C@@H]1O[C@H](CO)[C@@H](O)[C@H]1O [Adenosine],not suitable
7,NC=O [formamide],not suitable
8,N[C@H]1C(O)O[C@H](CO)[C@H](O)[C@@H]1O (stereo partly drawn) [D(+)-galactosamine],weak positive
9,O=[N+]([O-])[O-].[K+] [potassium nitrate],not suitable
10,N[C@@H]1C(O)O[C@H](CO)[C@@H](O)[C@@H]1O (stereo partly drawn) [D-mannosamine],weak positive
11,NCCCC[C@@H](N)C(=O)O [D-lysine],not suitable
12,N[C@H]1C(O)O[C@H](CO)[C@@H](O)[C@@H]1O (stereo partly drawn) [D(+)-glucosamine],positive
13,O=c1[nH]c(=O)c2[nH]c(=O)[nH]c2[nH]1 [uric acid],not suitable
14,CCCCCCC(N)C(=O)O (racemic) [DL-α-amino-caprylic acid],not suitable
15,NCC(=O)N[C@@H](CC(N)=O)C(=O)O [gly-asn] (H-Gly-Asn-OH),positive
16,CC(=O)N[C@@H]1C(O)O[C@H](CO)[C@@H](O)[C@@H]1O (stereo partly drawn) [N-acetyl-D-mannosamine],not suitable
17,NCCc1c[nH]cn1 [histamine],not suitable
18,CCN [ethylamine],not suitable
19,NCC(=O)O [glycine],positive
20,N=C(N)NCCC[C@H](N)C(=O)O [L-arginine],positive
21,N[C@@H](CCO)C(=O)O [L-homoserine],not suitable
22,CSCC[C@H](NC(=O)CN)C(=O)O [gly-met],positive
23,NC(N)=O [urea],not suitable
24,NCCN [ethylenediamine],not suitable
25,CC[C@H](C)[C@H](N)C(=O)O [L-isoleucine],not suitable
26,CSCC[C@H](N)C(=O)N[C@@H](C)C(=O)O [met-ala] (H-Met-Ala-OH),not suitable
